Legend:
[1] = system: ABL or ARG; assay: Probe-based (AX9989) kinase profiling in Jurkat lysate: ABL or ARG; format: binding
Outline: (§1)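 Read-out: LC/MS intensity of desthiobiotinylated kinase active-site peptides, percent inhibition normalized to no-compound lysate. Jurkat lysate with 20 mM MnCl2 received compound for 15 min at room temperature, then 5 μM AX9989 probe; duplicates.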

[2] = target: T1, ERK5 (Homo sapiens, UniProt Q13164); assay: Probe-based (AX9989 acyl phosphate ATP probe) kinase profiling in Jurkat lysate: ERK5; format: binding; conditions: for IC50: Jurkat lysate; for inhibition at 1 µM: screening concentration 1 μM
T1 construct: screened for activity against several kinases in Jurkat cells; endogenous in cells; host or cells: Jurkat cell lysate
Outline: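 ERK5 IC50 values came from percent inhibition at the screening concentration, measured as loss of LC/MS signal of probe-labelled active-site peptides. Compound was added for 15 min at room temperature to Jurkat lysate (5 mg/ml, 20 mM MnCl2) before labelling with AX9989 ATP acyl phosphate probe at 5 μM.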

[3] = target: T2, AurA (Homo sapiens, UniProt O14965); assay: Probe-based (AX9989) kinase profiling in Jurkat lysate: AurA; format: binding; conditions: for inhibition at 1 µM: screening concentration 1 μM
T2 construct: screened for activity against several kinases in Jurkat cells; endogenous in cells; host or cells: Jurkat cell lysate
T2 sequence (O14965 1-403): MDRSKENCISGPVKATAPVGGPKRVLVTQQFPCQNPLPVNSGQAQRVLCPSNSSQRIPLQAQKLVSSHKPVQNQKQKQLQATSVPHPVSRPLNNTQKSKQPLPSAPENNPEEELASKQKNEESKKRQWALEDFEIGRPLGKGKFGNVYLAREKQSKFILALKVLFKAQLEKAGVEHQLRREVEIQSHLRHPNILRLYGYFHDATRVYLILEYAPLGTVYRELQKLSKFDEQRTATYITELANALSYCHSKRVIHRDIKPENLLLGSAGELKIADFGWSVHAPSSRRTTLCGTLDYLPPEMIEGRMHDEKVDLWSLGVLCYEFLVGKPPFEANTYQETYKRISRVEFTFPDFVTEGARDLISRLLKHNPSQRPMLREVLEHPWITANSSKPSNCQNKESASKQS
Outline: as §1

[4] = target: T3, JAK1 (Homo sapiens, UniProt P23458); assay: Probe-based (AX9989) kinase profiling in Jurkat lysate: JAK1; format: binding; conditions: for inhibition at 1 µM: screening concentration 1 μM
T3 construct: screened for activity against several kinases in Jurkat cells; endogenous in cells; host or cells: Jurkat cell lysate
Outline: as §1

[5] = system: AMPKa1 or AMPKa2; assay: Probe-based (AX9989) kinase profiling in Jurkat lysate: AMPKa1 or AMPKa2; format: binding
Outline: as §1

[6] = system: human PBMCs; assay: Human PBMC TNF-α response to endotoxin (ELISA); format: cell-based; conditions: 0.1 μg/ml LPS 16 h, read-out: EC50 for the inhibition of the human PBMC TNF-α response to endotoxin, ave. ± S.D.
Outline: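 PBMCs at 2e6 cells/ml in RPMI 1640 with 10% charcoal-dextran-treated FBS were pre-treated 1 h at 37 °C with compound (4-point 1:5 dilution from 10 μM). Stimulation with 0.1 μg/ml E. coli 0111:B4 LPS for 16 h; TNF-α measured by ELISA (A450) in 25-fold diluted supernatant.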

[7] = target: T4, ACK (Homo sapiens, UniProt Q07912); assay: Probe-based (AX9989) kinase profiling in Jurkat lysate: ACK; format: binding; conditions: for inhibition at 1 µM: screening concentration 1 μM
T4 construct: screened for activity against several kinases in Jurkat cells; endogenous in cells; host or cells: Jurkat cell lysate
Outline: as §1

[8] = target: T5, TAO2 (Homo sapiens, UniProt Q9UL54); assay: Probe-based (AX9989) kinase profiling in Jurkat lysate: TAO2; format: binding; conditions: for inhibition at 1 µM: screening concentration 1 μM
T5 construct: screened for activity against several kinases in Jurkat cells; endogenous in cells; host or cells: Jurkat cell lysate
T5 sequence (Q9UL54 1-1235): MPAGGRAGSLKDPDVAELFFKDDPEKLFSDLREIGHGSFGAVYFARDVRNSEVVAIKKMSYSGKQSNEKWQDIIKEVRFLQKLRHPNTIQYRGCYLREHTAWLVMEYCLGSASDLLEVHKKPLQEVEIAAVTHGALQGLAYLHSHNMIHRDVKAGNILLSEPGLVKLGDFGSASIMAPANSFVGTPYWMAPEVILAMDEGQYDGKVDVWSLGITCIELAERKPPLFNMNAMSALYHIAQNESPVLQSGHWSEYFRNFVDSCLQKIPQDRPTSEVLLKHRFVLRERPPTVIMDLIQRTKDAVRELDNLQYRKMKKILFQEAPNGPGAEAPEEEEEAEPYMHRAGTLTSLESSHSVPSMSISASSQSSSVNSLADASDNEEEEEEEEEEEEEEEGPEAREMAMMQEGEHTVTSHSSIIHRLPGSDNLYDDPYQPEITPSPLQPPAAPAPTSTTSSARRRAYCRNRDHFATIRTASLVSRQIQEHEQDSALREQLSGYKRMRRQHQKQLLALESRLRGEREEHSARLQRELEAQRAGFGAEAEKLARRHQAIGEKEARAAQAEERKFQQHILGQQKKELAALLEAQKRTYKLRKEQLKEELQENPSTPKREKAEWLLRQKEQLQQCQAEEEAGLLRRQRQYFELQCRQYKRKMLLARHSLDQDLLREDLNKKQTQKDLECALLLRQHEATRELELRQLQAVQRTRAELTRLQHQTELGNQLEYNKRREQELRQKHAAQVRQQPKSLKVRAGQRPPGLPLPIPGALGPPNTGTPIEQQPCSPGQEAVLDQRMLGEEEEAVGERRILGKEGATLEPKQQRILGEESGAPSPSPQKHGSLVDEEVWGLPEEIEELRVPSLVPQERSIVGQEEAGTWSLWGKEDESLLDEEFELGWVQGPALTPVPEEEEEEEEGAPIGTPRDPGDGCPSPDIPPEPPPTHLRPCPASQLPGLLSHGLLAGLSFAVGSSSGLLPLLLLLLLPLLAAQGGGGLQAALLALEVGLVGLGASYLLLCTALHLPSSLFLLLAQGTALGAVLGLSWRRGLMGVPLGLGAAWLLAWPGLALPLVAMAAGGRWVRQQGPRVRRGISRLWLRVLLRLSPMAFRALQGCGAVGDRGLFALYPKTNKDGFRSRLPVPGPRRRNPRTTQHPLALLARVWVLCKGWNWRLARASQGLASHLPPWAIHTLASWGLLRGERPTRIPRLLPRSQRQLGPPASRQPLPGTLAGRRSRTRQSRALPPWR
Outline: as §1

[9] = system: AurB or AurC; assay: Probe-based (AX9989) kinase profiling in Jurkat lysate: AurB or AurC; format: binding
Outline: as §1

[10] = calculated from percent inhibition and screening concentration, AX9989 probe
[11] = read-out: ERK5 Inhibition % at indicated screening concentration
[12] = read-out: AurA Inhibition % at indicated screening concentration
[13] = read-out: JAK1 Inhibition % at indicated screening concentration
[14] = read-out: ACK Inhibition % at indicated screening concentration
[15] = read-out: TAO2 Inhibition % at indicated screening concentration

T3 sequence (P23458 whole entry): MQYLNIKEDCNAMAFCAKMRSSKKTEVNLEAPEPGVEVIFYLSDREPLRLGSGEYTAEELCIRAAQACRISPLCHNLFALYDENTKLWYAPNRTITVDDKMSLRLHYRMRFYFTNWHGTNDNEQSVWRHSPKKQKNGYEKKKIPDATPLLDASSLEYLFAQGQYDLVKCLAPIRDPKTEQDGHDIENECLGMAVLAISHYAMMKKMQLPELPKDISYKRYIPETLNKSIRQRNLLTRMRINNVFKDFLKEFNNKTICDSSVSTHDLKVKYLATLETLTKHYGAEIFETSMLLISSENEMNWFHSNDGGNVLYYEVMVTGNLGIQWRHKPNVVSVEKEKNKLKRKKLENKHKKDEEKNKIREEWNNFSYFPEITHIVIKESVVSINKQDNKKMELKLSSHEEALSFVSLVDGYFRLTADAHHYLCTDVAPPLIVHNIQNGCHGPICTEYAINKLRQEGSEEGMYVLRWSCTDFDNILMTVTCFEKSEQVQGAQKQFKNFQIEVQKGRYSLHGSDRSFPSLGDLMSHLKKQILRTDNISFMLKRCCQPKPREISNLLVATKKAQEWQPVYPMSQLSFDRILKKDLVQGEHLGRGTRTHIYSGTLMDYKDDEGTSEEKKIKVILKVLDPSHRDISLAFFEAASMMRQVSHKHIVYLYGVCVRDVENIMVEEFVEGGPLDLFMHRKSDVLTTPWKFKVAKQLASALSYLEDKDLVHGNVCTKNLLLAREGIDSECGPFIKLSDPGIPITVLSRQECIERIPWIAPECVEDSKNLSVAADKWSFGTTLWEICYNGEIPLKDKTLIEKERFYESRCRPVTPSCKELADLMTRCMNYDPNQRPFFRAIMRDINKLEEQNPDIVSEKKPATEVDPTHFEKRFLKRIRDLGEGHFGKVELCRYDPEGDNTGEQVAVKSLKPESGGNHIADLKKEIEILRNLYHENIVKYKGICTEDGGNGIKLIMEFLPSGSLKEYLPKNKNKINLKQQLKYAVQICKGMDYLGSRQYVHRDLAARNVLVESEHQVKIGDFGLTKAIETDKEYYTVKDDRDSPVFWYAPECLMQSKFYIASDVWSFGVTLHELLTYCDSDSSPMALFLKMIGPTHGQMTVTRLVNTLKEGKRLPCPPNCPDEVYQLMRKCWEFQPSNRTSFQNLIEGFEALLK
T1 sequence (Q13164 whole entry): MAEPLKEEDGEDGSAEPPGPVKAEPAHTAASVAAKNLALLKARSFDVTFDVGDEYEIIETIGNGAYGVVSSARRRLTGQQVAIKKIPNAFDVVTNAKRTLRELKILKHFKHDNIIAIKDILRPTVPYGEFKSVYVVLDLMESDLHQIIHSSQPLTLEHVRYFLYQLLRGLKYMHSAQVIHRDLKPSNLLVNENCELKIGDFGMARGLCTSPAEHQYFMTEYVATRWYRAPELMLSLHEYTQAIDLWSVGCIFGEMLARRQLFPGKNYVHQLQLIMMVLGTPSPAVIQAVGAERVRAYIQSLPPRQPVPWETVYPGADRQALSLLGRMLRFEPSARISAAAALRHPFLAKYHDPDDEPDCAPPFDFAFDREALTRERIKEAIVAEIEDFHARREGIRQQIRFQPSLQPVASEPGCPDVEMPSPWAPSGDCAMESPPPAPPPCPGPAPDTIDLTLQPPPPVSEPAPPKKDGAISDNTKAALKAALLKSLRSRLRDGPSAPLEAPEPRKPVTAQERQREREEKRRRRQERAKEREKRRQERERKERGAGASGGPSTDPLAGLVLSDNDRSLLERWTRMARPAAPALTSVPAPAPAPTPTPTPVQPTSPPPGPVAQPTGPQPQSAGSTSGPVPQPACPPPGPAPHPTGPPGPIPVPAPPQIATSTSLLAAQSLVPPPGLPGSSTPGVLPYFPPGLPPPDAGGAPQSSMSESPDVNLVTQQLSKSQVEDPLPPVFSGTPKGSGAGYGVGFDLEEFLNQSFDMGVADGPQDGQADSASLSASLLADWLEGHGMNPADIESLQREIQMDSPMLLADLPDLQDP
T4 sequence (Q07912 whole entry): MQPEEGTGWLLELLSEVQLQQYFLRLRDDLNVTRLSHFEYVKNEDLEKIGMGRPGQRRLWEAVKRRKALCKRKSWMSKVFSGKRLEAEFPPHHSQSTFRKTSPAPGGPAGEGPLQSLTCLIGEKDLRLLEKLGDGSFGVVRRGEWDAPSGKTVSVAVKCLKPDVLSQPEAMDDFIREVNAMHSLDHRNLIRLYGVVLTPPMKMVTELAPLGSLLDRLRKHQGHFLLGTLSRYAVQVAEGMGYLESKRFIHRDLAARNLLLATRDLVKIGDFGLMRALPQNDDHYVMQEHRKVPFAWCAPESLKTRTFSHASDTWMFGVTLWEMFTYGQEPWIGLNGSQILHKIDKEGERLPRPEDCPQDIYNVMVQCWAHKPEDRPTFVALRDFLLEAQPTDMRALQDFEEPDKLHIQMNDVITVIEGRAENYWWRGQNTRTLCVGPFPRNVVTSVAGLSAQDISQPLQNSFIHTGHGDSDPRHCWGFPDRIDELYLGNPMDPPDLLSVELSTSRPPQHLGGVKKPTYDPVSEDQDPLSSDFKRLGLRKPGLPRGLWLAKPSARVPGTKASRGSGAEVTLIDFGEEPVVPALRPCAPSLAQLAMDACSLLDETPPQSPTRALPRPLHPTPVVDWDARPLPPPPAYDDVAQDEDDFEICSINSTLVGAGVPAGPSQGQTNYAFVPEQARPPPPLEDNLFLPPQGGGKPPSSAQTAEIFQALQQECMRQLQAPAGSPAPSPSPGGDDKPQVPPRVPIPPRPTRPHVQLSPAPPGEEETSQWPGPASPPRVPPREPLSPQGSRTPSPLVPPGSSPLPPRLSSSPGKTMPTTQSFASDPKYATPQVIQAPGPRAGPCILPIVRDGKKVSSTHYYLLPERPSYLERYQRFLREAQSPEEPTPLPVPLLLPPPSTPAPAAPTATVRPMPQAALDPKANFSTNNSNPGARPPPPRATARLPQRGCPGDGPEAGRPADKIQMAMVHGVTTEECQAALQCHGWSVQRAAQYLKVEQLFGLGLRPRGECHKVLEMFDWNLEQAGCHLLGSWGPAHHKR

SMILES | ABL or ARG Inhibition % at indicated screening concentration ([1]; screening concentration 1 μM) | IC50 [2, 10] [nM] | inhibition at 1 µM [2, 11] [%] | inhibition at 1 µM [3, 12] [%] | inhibition at 1 µM [4, 13] [%] | AMPKa1 or AMPKa2 Inhibition % at indicated screening concentration ([5]; screening concentration 1 μM) | EC50 [6] [nM] | inhibition at 1 µM [7, 14] [%] | inhibition at 1 µM [8, 15] [%] | AurB or AurC Inhibition % at indicated screening concentration ([9]; screening concentration 1 μM) | other results
CCOc1cc(C(=O)N2CCC(N3CCCC3)CC2)ccc1Nc1cc2c(cn1)N(C)C(=O)c1scnc1N2C [Compound T6] | E (E is ≦35%) | ≤ 50 | > 90 | ≤ 35 | ≤ 35 | E (E is ≦35%) | 400 | ≤ 35 | ≤ 35 | E (E is ≦35%) | 
CCOc1cc(C(=O)N2CCN(C(=O)OC(C)(C)C)C[C@@H]2C)ccc1Nc1cc2c(cn1)N(C)C(=O)c1ccccc1N2C [Compound 50] |  |  |  |  |  |  | 2580 |  |  |  | Kinase inhibition % at indicated screening concentration: ABL or ARG ([1]; screening concentration 0.1 μM): E (E is ≦35%); IC50 ([2]; calculated from percent inhibition of AX9989 labeling and the screening concentration): 101 to 500 nM; inhibition at 0.1 µM ([2]; screening concentration 0.1 μM, read-out: Kinase inhibition % at indicated screening concentration: ERK5): 35 to 50%; inhibition at 0.1 µM ([3]; screening concentration 0.1 μM, read-out: Kinase inhibition % at indicated screening concentration: AurA): ≤ 35%; inhibition at 0.1 µM ([4]; screening concentration 0.1 μM, read-out: Kinase inhibition % at indicated screening concentration: JAK1): ≤ 35%; Kinase inhibition % at indicated screening concentration: AMPKa1 or AMPKa2 ([5]; screening concentration 0.1 μM): E (E is ≦35%); inhibition at 0.1 µM ([7]; screening concentration 0.1 μM, read-out: Kinase inhibition % at indicated screening concentration: ACK): ≤ 35%; inhibition at 0.1 µM ([8]; screening concentration 0.1 μM, read-out: Kinase inhibition % at indicated screening concentration: TAO2): ≤ 35%; Kinase inhibition % at indicated screening concentration: AurB or AurC ([9]; screening concentration 0.1 μM): E (E is ≦35%)
CN1C(=O)c2ccccc2N(C)c2cc(N[C@H]3C[C@H](O)C3)ncc21 [Compound T88] |  | > 500 |  |  |  |  | 2530 |  |  |  | ABL or ARG Inhibition % at indicated screening concentration ([1]; screening concentration 10 μM): E (E is ≦35%); inhibition at 10 µM ([2]; screening concentration 10 μM, read-out: ERK5 Inhibition % at indicated screening concentration): 75 to 90%; inhibition at 10 µM ([3]; screening concentration 10 μM, read-out: AurA Inhibition % at indicated screening concentration): 50 to 75%; inhibition at 10 µM ([4]; screening concentration 10 μM, read-out: JAK1 Inhibition % at indicated screening concentration): ≤ 35%; AMPKa1 or AMPKa2 Inhibition % at indicated screening concentration ([5]; screening concentration 10 μM): E (E is ≦35%); inhibition at 10 µM ([7]; screening concentration 10 μM, read-out: ACK Inhibition % at indicated screening concentration): ≤ 35%; inhibition at 10 µM ([8]; screening concentration 10 μM, read-out: TAO2 Inhibition % at indicated screening concentration): 35 to 50%; AurB or AurC Inhibition % at indicated screening concentration ([9]; screening concentration 10 μM): B (B is >75% to ≦90%)
CC(=O)N1CCN(C(=O)c2ccc(Nc3cc4c(cn3)N(C)C(=O)c3ccccc3N4C)c(F)c2)CC1 [Compound T71] | E (E is ≦35%) | ≤ 50 | > 90 | ≤ 35 | ≤ 35 | E (E is ≦35%) | 4200 | ≤ 35 | ≤ 35 | E (E is ≦35%) | 

From US20170008888A1 (KYORIN PHARMACEUTICAL CO., LTD., priority 2014, published 2017)
